Legend:
Assay in all cases: relative viability (nuclei count vs DMSO), 5 days (fraction); higher = more cells survive
[1] = compound: CCC1=CN=CN=C1N2CCN(CC2)CC3=NC4=C(N3)C=C(C=C4)C(F)(F)F + CC(=O)Nc1cccc(-n2c(=O)n(C3CC3)c(=O)c3c(Nc4ccc(I)cc4F)n(C)c(=O)c(C)c32)c1 [Trametinib] (partner 0.02 µM)
Summary of the method: (§1)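 Relative viability was taken as the ratio of nuclei in treated wells to nuclei in vehicle wells. Lung cancer cell lines in 1536-well plates received compounds by pin tool one day after seeding, either one drug alone or a fixed anchor-drug dose plus five library-drug doses (not always all listed) in √10 steps. Nuclei were counted on 4× images after 5 days of treatment, and values are medians of duplicate plates.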

Mirin + Navitoclax = compound: N=C1NC(=O)/C(=C/c2ccc(O)cc2)S1 [Mirin] + CC1(C)CCC(c2ccc(Cl)cc2)=C(CN2CCN(c3ccc(C(=O)NS(=O)(=O)c4ccc(N[C@H](CCN5CCOCC5)CSc5ccccc5)c(S(=O)(=O)C(F)(F)F)c4)cc3)CC2)C1 [Navitoclax] (partner 0.5 µM)
Summary of the method: as §1

Mirin + Phenformin = compound: N=C1NC(=O)/C(=C/c2ccc(O)cc2)S1 [Mirin] + N=C(N)NC(=N)NCCc1ccccc1 [Phenformin] (partner 250 µM)
Summary of the method: as §1

Mirin + Olaparib = compound: N=C1NC(=O)/C(=C/c2ccc(O)cc2)S1 [Mirin] + O=C(c1cc(Cc2n[nH]c(=O)c3ccccc23)ccc1F)N1CCN(C(=O)C2CC2)CC1 [Olaparib] (partner 8 µM)
Summary of the method: as §1

Row | Cell Line | relative viability ([1]; first compound 0.04 µM) | relative viability ([1]; first compound 0.1265 µM) | relative viability ([1]; first compound 0.4 µM) | relative viability ([1]; first compound 1.265 µM) | relative viability ([1]; first compound 4 µM) | relative viability (Mirin + Navitoclax; first compound 0.25 µM) | relative viability (Mirin + Navitoclax; first compound 0.7906 µM) | relative viability (Mirin + Navitoclax; first compound 2.5 µM) | relative viability (Mirin + Navitoclax; first compound 7.906 µM) | relative viability (Mirin + Navitoclax; first compound 25 µM) | relative viability (Mirin + Phenformin; first compound 0.25 µM) | relative viability (Mirin + Phenformin; first compound 0.7906 µM) | relative viability (Mirin + Phenformin; first compound 2.5 µM) | relative viability (Mirin + Phenformin; first compound 7.906 µM) | relative viability (Mirin + Phenformin; first compound 25 µM) | relative viability (Mirin + Olaparib; first compound 0.25 µM) | relative viability (Mirin + Olaparib; first compound 0.7906 µM) | relative viability (Mirin + Olaparib; first compound 2.5 µM) | relative viability (Mirin + Olaparib; first compound 7.906 µM) | relative viability (Mirin + Olaparib; first compound 25 µM)
1 | NCI-H2087 | 0.172 | 0.226 | 0.244 | 0.215 | 0.189 | 1.01 | 1.21 | 0.944 | 1.27 | 1.03 | 0.494 | 0.559 | 0.454 | 0.429 | 0.613 | 0.602 | 0.559 | 0.611 | 0.671 | 0.498
2 | NCI-H2126 | 0.601 | 0.546 | 0.565 | 0.536 | 0.513 | 0.811 | 0.81 | 0.819 | 0.852 | 0.85 | 0.549 | 0.471 | 0.509 | 0.546 | 0.532 | 0.929 | 0.925 | 0.951 | 0.947 | 0.959
3 | NCI-H2170 | 0.946 | 0.911 | 0.873 | 0.777 | 0.851 | 0.698 | 0.51 | 0.659 | 0.521 | 0.375 | 0.449 | 0.439 | 0.426 | 0.377 | 0.413 | 0.582 | 0.548 | 0.576 | 0.597 | 0.601
4 | NCI-H2228 |  | 0.471 | 0.397 | 0.221 | 0.586 | 1.2 | 0.972 | 1.35 | 1.18 | 1.03 | 0.377 | 0.299 | 0.303 | 0.295 | 0.309 | 0.552 | 0.676 | 0.819 | 0.666 | 0.723
5 | NCI-H2347 | 0.295 | 0.333 | 0.313 | 0.249 | 0.293 | 0.8 | 0.784 | 0.812 | 0.825 | 0.893 | 0.334 | 0.328 | 0.52 | 0.453 | 0.552 | 0.639 | 0.639 | 0.602 | 0.612 | 0.588
6 | NCI-H2405 | 0.676 | 0.666 | 0.624 |  | 0.68 | 0.812 | 0.97 | 0.742 | 0.641 | 0.73 | 0.395 | 0.392 | 0.392 | 0.346 | 0.37 | 0.916 |  | 0.898 | 0.97 | 0.838
7 | NCI-H3122 | 0.19 | 0.248 | 0.201 | 0.219 | 0.184 | 1.01 | 1.1 | 1.01 | 1.09 | 1.15 | 0.378 | 0.426 | 0.414 | 0.378 | 0.467 | 0.691 | 0.667 | 0.566 | 0.623 | 0.664
8 | PC-3 [JPC-3] |  | 0.632 | 0.671 | 0.634 | 0.682 | 0.826 | 0.813 | 0.812 | 0.869 | 0.904 | 0.462 | 0.48 | 0.513 | 0.513 | 0.522 | 1.14 | 1.23 | 1.19 | 1.21 | 1.23
9 | PC-14 | 0.828 | 0.808 | 0.714 | 0.71 | 0.779 | 1.04 | 1.04 | 1.08 | 1.03 | 1.17 | 0.595 | 0.509 | 0.659 | 0.553 | 0.814 | 0.25 | 0.34 | 0.313 | 0.308 | 0.271
10 | RERF-LC-KJ | 0.795 | 0.798 | 0.821 | 0.76 | 0.774 | 0.979 | 0.862 | 0.989 | 1.08 | 1.1 | 0.37 | 0.543 | 0.418 | 0.487 | 0.461 | 1.03 | 1.12 | 0.941 | 0.972 | 0.875
11 | SK-LU-1 | 0.635 | 0.483 | 0.465 | 0.35 | 0.476 | 1.05 | 0.909 | 0.793 | 0.772 | 0.498 | 0.643 | 0.486 | 0.522 | 0.497 | 0.44 | 0.5 | 0.532 | 0.449 | 0.357 | 0.425
12 | SK-MES-1 | 0.569 | 0.503 | 0.582 | 0.516 | 0.563 | 1.2 | 1.34 | 1.23 | 1.19 | 1.4 | 0.678 | 0.852 | 0.693 | 0.746 | 0.771 | 0.721 | 0.877 | 0.682 | 0.583 | 0.455
13 | SW 1573 | 0.652 | 0.58 | 0.513 | 0.47 | 0.497 | 0.989 | 0.98 | 0.825 | 0.88 | 0.608 | 0.384 | 0.413 | 0.378 | 0.385 | 0.262 | 0.481 | 0.408 | 0.46 | 0.37 | 0.271
